Laboratory results taken from patent US20150141411A1, “SUBSTITUTED 3,4-DIHYDRO-2H-PYRIDO[1,2-A]PYRAZINE-1,6-DIONE DERIVATIVES USEFUL FOR THE TREATMENT OF (INTER ALIA) ALZHEIMER'S DISEASE” (Janssen Pharmaceuticals, Inc., priority 2012, published 2015).

Key:
γ-secretase = molecular target: T1, γ-secretase (Homo sapiens, UniProt P49768); test: Screening for γ-secretase-modulating activity: Aβ42 in supernatant of SKNBE2 cells carrying hAPP 695 wild type (Alphalisa); format: cell-based; details: SKNBE2 human neuroblastoma cells carrying hAPP 695 wild type, overnight incubation, Aβ42 in cell supernatant
T1 construct: endogenous in cells; host or cells: SKNBE2 human neuroblastoma cells (carrying hAPP 695 wild type as substrate)
Method in brief: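 SKNBE2 neuroblastoma cells expressing wild-type hAPP 695 plated at 10^4 cells/well in Ultraculture with test compound, incubated overnight at 37° C. Aβ42 (C-terminal/N-terminal antibody pair) and Aβtotal (N-terminal/4G8 pair) in supernatant quantified by AlphaLISA. IC50 from 4-parameter fit of percent of compound-free control.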

Aβ42 = test: In vivo efficacy: brain soluble Aβ42 in non-transgenic rodents (MSD electrochemiluminescence multiplex); set-up: species or system mouse; details: Mus musculus, po, 4 h, dose 30 mg/kg oral dosing, brain soluble fraction, animals sacrificed after 4 h, untreated animals (Ctrl) set at 100, read-out: Aβ42 (% vs Ctrl)_Mean
Source text: (§1) To determine whether acute administration of an Aβ42 lowering agent would reduce Aβ42 levels in vivo, non-transgenic rodents, e.g. mice or rats were used. Animals treated with the Aβ42 lowering agent were examined and compared to those untreated or treated with vehicle and brain levels of soluble Aβ42, Aβ40, Aβ38, and Aβ37 were quantitated by Meso Scale Discovery's (MSD) electrochemiluminescence detection technology. Treatment periods varied from hours (h) to days and were adjusted based on the results of the Aβ42 lowering once a time course of onset of effect could be established.
(§2) A typical protocol for measuring Aβ42 lowering in vivo is shown but it is only one of many variations that could be used to optimize the levels of detectable Aβ. For example, Aβ42 lowering compounds were formulated in 20% of Captisol® (a sulfo-butyl ether of β-cyclodextrin) in water or 20% hydroxypropyl βcyclodextrin. The Aβ42 lowering agents were administered as a single oral dose or by any acceptable route of administration to overnight fasted animals. After 4 h, the animals were sacrificed and Aβ42 levels were analysed.
(§3) Blood was collected by decapitation and exsanguinations in EDTA-treated collection tubes. Blood was centrifuged at 1900 g for 10 minutes (min) at 4° C. and the plasma recovered and flash frozen for later analysis. The brain was removed from the cranium and hindbrain. The cerebellum was removed and the left and right hemisphere were separated. The left hemisphere was stored at −18° C. for quantitative analysis of test compound levels. The right hemisphere was rinsed with phosphate-buffered saline (PBS) buffer and immediately frozen on dry ice and stored at −80° C. until homogenization for biochemical assays.
(§4) Mouse brains from non-transgenic animals were resuspended in 8 volumes of 0.4% DEA (diethylamine)/50 mM NaCl containing protease inhibitors (Roche-11873580001 or 04693159001) per gram of tissue, e.g. for 0.158 g brain, add 1.264 ml of 0.4% DEA. All samples were homogenized in the FastPrep-24 system (MP Biomedicals) using lysing matrix D (MPBio #6913-100) at 6 m/s for 20 seconds. Homogenates were centrifuged at 20800×g for 5 min and supernatants collected. Supernatants were centrifuged at 221.300×g for 50 min. The resulting high speed supernatants were then transferred to fresh eppendorf tubes. Nine parts of supernatant were neutralized with 1 part 0.5 M Tris-HCl pH 6.8 and used to quantify Aβ.
(§5) To quantify the amount of Aβ42, Aβ40, Aβ38, and Aβ37 in the soluble fraction of the brain homogenates, simultaneous specific detection of Aβ42, Aβ40, Aβ38, and Aβ37 was performed using MSD's electro-chemiluminescence multiplex detection technology. In this assay purified monoclonal antibodies specific for Abeta37 (JRD/Aβ37/3), Abeta38 (J&JPRD/Aβ38/5), Abeta40 (JRF/cAβ40/28), and Abeta42 (JRF/cAβ42/26) were coated on MSD 4-plex plates. Briefly, the standards (a dilution of synthetic Aβ42, Aβ40, Aβ38, and Aβ37) were prepared in 1.5 ml Eppendorf tube in Ultraculture, with final concentrations ranging from 10000 to 0.3 pg/m. The samples and standards were co-incubated with Sulfo-tag labelled JRF/rAβ/2 antibody to the N-terminus of Aβ as detector antibody. 50 μl of conjugate/sample or conjugate/standards mixtures were then added to the antibody-coated plate. The plate was allowed to incubate overnight at 4° C. in order to allow formation of the antibody-amyloid complex. Following this incubation and subsequent wash steps the assay was finished by adding read buffer according to the manufacturer's instructions (Meso Scale Discovery, Gaitherburg, Md.).
(§6) The SULFO-TAG emits light upon electrochemical stimulation initiated at the electrode. MSD Sector instrument SI6000 was used for signal read-out.
In this model a Aβ42 lowering compared to untreated animals would be advantageous, in particular a Aβ42 lowering with at least 10%, more in particular a Aβ42 lowering with at least 20%. […]

Aβ40 = test: In vivo efficacy: brain soluble Aβ40 in non-transgenic rodents (MSD electrochemiluminescence multiplex); set-up: species or system mouse; details: Mus musculus, po, 4 h, dose 30 mg/kg oral dosing, brain soluble fraction, animals sacrificed after 4 h, untreated animals (Ctrl) set at 100, read-out: Aβ40 (% vs Ctrl)_Mean
Source text: as §1, §2, §3, §4, §5, §6
The results are shown in Table 5 (dose 30 mg/kg oral dosing) (value for untreated animals as control (Ctrl) was set at 100): […]

Compound	IC50 (γ-secretase)	response vs control in vivo at 30 mg/kg (Aβ42)	response vs control in vivo at 30 mg/kg (Aβ40)
Cc1cn(-c2ccc3n(c2=O)C[C@@H](C)N(Cc2ccc(F)c(F)c2)C3=O)cn1 [compound 133]	1510 nM	87%	77%
Cc1cn(-c2ccc3n(c2=O)C[C@@H](C)N(Cc2cc(CC(F)(F)F)cc(C(F)(F)F)c2)C3=O)cn1 [compound 134]	100 nM	97%	115%
Cc1cn(-c2ccc3n(c2=O)C[C@@H](C)N(Cc2cc(OC(F)(F)F)cc(C(F)(F)F)c2)C3=O)cn1 [compound 140]	60 nM	42%	71%
Cc1cn(-c2ccc3n(c2=O)C[C@@H](C)N(Cc2cc(Br)cc(C(F)(F)F)c2)C3=O)cn1 [compound 145]	110 nM	71%	92%
Cc1cn(-c2cc(F)c3n(c2=O)C[C@@H](C)N(Cc2cc(C(F)(F)F)cc(C(F)(F)F)c2)C3=O)cn1 [compound 158]	460 nM	97%	98%

The remaining compounds from weak to strong by IC50 (γ-secretase), led by results:

IC50 (γ-secretase)	Compound	response vs control in vivo at 30 mg/kg (Aβ42)	response vs control in vivo at 30 mg/kg (Aβ40)
2140 nM	COc1cccc(CN2C(=O)c3ccc(-n4cnc(C)c4)c(=O)n3C[C@H]2C)c1 [compound 132]	104%	121%
50 nM	Cc1cn(-c2ccc3n(c2=O)C[C@@H](C)N(Cc2cc(OCC(F)(F)F)cc(C(F)(F)F)c2)C3=O)cn1 [compound 166]	64%	107%
30 nM	Cc1cn(-c2ccc3n(c2=O)C[C@@H](C)N(Cc2c[nH]c4cc(F)c(Cl)cc24)C3=O)cn1 [compound 195]	105%	135%
